Experiment [1] is described as follows: viability loss in fusion assay cells – cell-based, MAGI and MAGI-HeLa co-culture, cytotoxicity control for HIV-1 fusion inhibitor project, dose response (AID 2286).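 For all read-outs here: cells exposed to compound for at least 64 h before ATP readout.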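 For minimum viability: 100% = median of DMSO vehicle wells with no ATP signal meaning 0%.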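 For viability: 100% = median of DMSO vehicle wells with no ATP signal meaning 0%.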 The settings on record: MAGI-CCR5 cells viability, CellTiter-Glo ATP luminescence, at 50 µM, stronger effect = lower value; for viability: MAGI-HeLa co-culture viability; for minimum viability: measured here: MAGI minimum viability across doses. Background: ATP-based viability assays read luminescence as a measure of living cells.

Experiment [2] relates to MAGI-CCR5 cells viability, CellTiter-Glo ATP luminescence. Described as above.
[3] abbreviates: measured here: MAGI + HeLa-R5-16 co-culture viability.

For 6 compounds, viability, minimum viability and CC50 results are on record in PubChem BioAssay AID2286 (Southern Research Specialized Biocontainment Screening …, 2010).

Each structure is given as a SMILES string.

For orientation: viability means the share of living cells, or the viability signal relative to a control. In general, CC50 refers to the concentration at which the toxic effect on the cells reaches its halfway point. For the compound `O=C(O)C1Nc2c(O)cccc2C2C=CCC12` (stereo unspecified), in experiment [1], the viability was determined as 21.6% and the minimum viability was determined as 23%. The CC50 in experiment [2] is 18.6 µM. Further, in experiment [2] (setting [3]), the CC50 is 22.4 µM.
Regarding `CCC(C)(C)C1CCc2c(sc(NC(=O)c3ccccc3C(=O)O)c2C#N)C1` (stereo unspecified), in experiment [1], the viability was determined as 50.7% and the minimum viability was determined as 55.5%. Further, the CC50 in experiment [2] (setting [3]) was greater than 50 µM.
Turning to `O=C(N/N=C/c1cc(Cl)cc([N+](=O)[O-])c1O)NC12CC3CC(CC(C3)C1)C2`, in experiment [1], the viability stood at 55.7% and the minimum viability amounted to 49.2%. Also, the CC50 in experiment [2] is 48.7 µM. Also, in experiment [2] (setting [3]), the CC50 is greater than 50 µM.
In experiment [1], `Cc1cccc(C)c1-n1cccc1/C=C1\SC(=S)N(c2cccc(C(=O)O)c2)C1=O` returned a viability of 67.8% and a minimum viability of 62.3%. In addition, in experiment [2] (setting [3]), the CC50 is greater than 50 µM.
In experiment [1], `Cc1nn(CCc2nn[nH]n2)c2nc(-c3ccc(C4CCCCC4)cc3)cc(C(F)(F)F)c12` gave a viability of 66.9% and a minimum viability of 42.9%. Further, in experiment [2], the CC50 was 36.3 µM. In addition, in experiment [2] (setting [3]), the CC50 was greater than 50 µM.
In experiment [1], `O=S(=O)(Nc1nc(-c2sccc2Cl)cs1)c1cc(Cl)ccc1Cl` came in with a viability of 70.8% and a minimum viability of 47.7%. The CC50 in experiment [2] (setting [3]) is greater than 50 µM.
